Measured values taken from ChEMBL document CHEMBL5257022, “An integrated overview on pyrrolizines as potential anti-inflammatory, analgesic and antipyretic agents” (Eur J Med Chem, 2016).
pIC50: −log10 of the molar value. Each block holds one compound with its values, some of them ahead of it.

Tests used:
[1] = system: Rattus norvegicus; assay: Antiinflammatory activity in rat assessed as fold change in inhibition of paw edema relative to phenylbutazone; format: functional
[2] = species on record: Mus musculus; assay: Analgesic activity in mouse assessed as inhibition of acetic acid-induced writhing response relative to aspirin; format: functional
[3] = target: Prostaglandin G/H synthase 1 (Homo sapiens, UniProt P23219); assay: Inhibition of COX1 (unknown origin)
[4] = target: T1, Polyunsaturated fatty acid 5-lipoxygenase (Homo sapiens) (UniProt P09917); assay: Inhibition of 5-LOX in human PMNL at 10 uM relative to control; format: cell-based
T1 sequence (whole entry): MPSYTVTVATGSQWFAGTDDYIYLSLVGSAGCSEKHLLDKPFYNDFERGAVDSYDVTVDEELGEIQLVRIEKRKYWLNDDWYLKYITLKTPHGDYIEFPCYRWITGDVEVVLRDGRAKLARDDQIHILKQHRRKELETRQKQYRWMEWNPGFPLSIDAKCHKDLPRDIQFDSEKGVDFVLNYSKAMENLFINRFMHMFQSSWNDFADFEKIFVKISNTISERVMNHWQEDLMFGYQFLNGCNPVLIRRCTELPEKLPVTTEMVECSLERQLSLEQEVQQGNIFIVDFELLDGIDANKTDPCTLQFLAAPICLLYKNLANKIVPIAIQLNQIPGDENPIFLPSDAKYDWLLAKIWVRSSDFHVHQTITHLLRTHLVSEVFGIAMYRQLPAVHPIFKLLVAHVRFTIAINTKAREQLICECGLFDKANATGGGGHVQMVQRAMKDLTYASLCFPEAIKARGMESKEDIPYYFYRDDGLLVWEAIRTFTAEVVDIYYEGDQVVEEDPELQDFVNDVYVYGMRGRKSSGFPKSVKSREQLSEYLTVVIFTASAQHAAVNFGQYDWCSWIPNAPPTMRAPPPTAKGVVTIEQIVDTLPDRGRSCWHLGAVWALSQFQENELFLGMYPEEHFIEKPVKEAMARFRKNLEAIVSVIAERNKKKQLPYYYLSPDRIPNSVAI

[5] = target: T2, Prostaglandin G/H synthase 2 (Homo sapiens, UniProt P35354); assay: Inhibition of COX2 (unknown origin)
T2 sequence (P35354 whole entry): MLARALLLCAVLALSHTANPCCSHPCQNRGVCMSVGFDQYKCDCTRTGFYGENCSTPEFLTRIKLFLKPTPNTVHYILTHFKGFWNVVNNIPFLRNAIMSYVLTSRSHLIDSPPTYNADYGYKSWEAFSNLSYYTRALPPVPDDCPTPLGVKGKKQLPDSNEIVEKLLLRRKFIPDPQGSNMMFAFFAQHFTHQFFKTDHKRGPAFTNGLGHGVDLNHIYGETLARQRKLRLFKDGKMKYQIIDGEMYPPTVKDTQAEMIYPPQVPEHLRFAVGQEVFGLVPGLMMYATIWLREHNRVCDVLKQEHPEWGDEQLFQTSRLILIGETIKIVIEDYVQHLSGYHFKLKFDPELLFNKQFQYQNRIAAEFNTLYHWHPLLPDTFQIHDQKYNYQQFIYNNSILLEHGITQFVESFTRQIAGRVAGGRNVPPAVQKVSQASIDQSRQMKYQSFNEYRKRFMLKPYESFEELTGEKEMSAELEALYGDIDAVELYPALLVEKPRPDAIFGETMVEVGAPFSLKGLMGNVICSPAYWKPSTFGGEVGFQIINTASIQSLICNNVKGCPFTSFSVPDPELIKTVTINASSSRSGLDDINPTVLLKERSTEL

[6] = system: Rattus norvegicus; assay: Antiinflammatory activity in rat assessed as inhibition of paw edema; format: functional
[7] = target: T3, Prostaglandin G/H synthase 1 (Ovis aries) (UniProt P05979); assay: Inhibition of COX1 in ovine thrombocyte at 10 uM relative to control
T3 sequence (whole entry): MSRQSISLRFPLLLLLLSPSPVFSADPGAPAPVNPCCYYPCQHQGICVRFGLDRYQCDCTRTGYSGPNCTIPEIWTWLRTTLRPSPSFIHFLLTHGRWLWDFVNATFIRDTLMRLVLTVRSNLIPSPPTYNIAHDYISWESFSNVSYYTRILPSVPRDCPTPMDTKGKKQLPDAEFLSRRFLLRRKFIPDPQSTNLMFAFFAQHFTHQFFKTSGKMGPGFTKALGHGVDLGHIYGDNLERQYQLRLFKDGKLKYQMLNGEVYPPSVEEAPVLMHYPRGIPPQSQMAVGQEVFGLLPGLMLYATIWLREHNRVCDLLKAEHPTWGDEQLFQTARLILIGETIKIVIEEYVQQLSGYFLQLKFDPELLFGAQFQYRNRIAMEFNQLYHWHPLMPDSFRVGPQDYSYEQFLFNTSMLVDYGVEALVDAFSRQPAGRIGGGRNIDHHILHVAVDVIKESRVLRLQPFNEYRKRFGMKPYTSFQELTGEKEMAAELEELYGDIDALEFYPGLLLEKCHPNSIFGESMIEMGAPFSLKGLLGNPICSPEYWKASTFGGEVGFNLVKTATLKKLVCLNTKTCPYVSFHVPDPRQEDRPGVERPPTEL

Chain of Prostaglandin G/H synthase 1 (P23219 whole entry): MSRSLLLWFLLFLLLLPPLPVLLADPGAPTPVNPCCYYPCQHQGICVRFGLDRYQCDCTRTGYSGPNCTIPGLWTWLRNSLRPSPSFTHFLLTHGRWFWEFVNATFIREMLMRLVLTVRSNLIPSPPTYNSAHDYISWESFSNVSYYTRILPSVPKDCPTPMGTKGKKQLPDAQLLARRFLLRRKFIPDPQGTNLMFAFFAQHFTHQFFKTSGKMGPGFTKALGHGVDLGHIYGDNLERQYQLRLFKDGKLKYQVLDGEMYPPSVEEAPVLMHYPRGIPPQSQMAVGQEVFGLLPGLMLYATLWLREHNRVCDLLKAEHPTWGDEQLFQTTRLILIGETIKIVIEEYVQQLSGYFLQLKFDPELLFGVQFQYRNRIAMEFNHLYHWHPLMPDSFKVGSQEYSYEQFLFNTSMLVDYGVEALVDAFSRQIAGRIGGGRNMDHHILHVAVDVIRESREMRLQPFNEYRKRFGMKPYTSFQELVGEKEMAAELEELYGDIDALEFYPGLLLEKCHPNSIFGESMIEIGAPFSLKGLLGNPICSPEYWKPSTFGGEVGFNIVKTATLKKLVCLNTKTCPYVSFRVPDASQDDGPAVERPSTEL

SMILES: O=C(c1cccc(Cl)c1)c1ccc2n1CCCC2C(=O)O (stereo unspecified)
fold change (FC) [1]: 8
fold change (FC) [2]: -9

pIC50 [3]: 5.41
IP [4]: 0%
SMILES: Clc1ccc(-c2cn3c(c2-c2ccccc2)CCC3)s1

pIC50 [5]: 8.10
pIC50 [3]: 5.09
IP [4]: 0%
SMILES: CS(=O)(=O)c1ccc(-c2cn3c(c2-c2ccc(Cl)cc2)CCC3)cc1

pIC50 [3]: 7.70
SMILES: CC1(C)Cc2c(-c3ccccc3)c(-c3occ4ccccc34)c(CC(=O)O)n2C1

SMILES: O=C(Cc1ccccc1)c1ccc2n1CCC2C(=O)O (stereo unspecified)
fold change (FC) [1]: 3
fold change (FC) [2]: 14

pIC50 [3]: 7.22
SMILES: CC1(C)Cc2c(-c3ccccc3)c(-c3ccsc3)c(CC(=O)O)n2C1

SMILES: O=C(c1ccc(Cl)cc1)c1c(Cl)cc2n1CCC2C(=O)O (stereo unspecified)
fold change (FC) [1]: 88
fold change (FC) [2]: 167

SMILES: Cc1ccccc1NC(=O)c1c(NC(=O)CCCl)c(C#N)c2n1CCC2
inhibition (INH) [6]: 17.5%

pIC50 [3]: 6.89
SMILES: CC1(C)Cc2c(-c3ccccc3)c(-c3ccco3)c(CC(=O)O)n2C1

SMILES: O=C(c1ccc(Cl)cc1)c1ccc2n1CCCC2C(=O)O (stereo unspecified)
fold change (FC) [1]: <=0.6
fold change (FC) [2]: <1

IP [7]: 45%
SMILES: O=C(O)/C=C/c1c(-c2ccc(Nc3ccccc3)cc2)c(-c2ccccc2)c2n1CCC2

IP [7]: 0%
SMILES: O=C(O)/C=C/c1c(-c2ccc(S(=O)(=O)c3ccccc3)cc2)c(-c2ccccc2)c2n1CCC2

SMILES: N#Cc1c(NC(=O)CCN2CCOCC2)c(C(=O)Nc2ccccc2Cl)n2c1CCC2
inhibition (INH) [6]: 5.7%

SMILES: CSc1ccc(C(=O)c2ccc3n2CCCCC3C(=O)O)cc1 (stereo unspecified)
fold change (FC) [1]: <0.2
fold change (FC) [2]: -6

SMILES: COc1ccc(C(=O)c2ccc3n2CCCC3C(=O)O)cc1 (stereo unspecified)
fold change (FC) [1]: <1.6
fold change (FC) [2]: 1.5

pIC50 [3]: 6.68
SMILES: CC1(C)Cc2c(-c3ccccc3)c(-c3ccc(Cl)s3)c(CC(=O)O)n2C1

SMILES: O=C(c1ccc(F)cc1)c1ccc2n1CCCCC2C(=O)O (stereo unspecified)
fold change (FC) [1]: <1
fold change (FC) [2]: <1.3

SMILES: Cc1ccc(C(=O)c2ccc3n2CCC3C(=O)O)cc1 (stereo unspecified)
fold change (FC) [1]: 39
fold change (FC) [2]: 165

SMILES: O=C(c1ccccc1)c1ccc2n1CC(C(=O)O)C2 (stereo unspecified)
fold change (FC) [1]: <1
fold change (FC) [2]: -4

SMILES: Cc1ccccc1NC(=O)c1c(NC(=O)CCN2CCOCC2)c(C#N)c2n1CCC2
inhibition (INH) [6]: 3.2%

pIC50 [5]: 6.80
pIC50 [3]: 5.37
IP [4]: 0%
SMILES: CS(=O)(=O)c1ccc(-c2cn3c(c2-c2ccc(F)cc2)CCC3)cc1

SMILES: CC(C)(C)C(=O)c1ccc2n1CCC2C(=O)O (stereo unspecified)
fold change (FC) [1]: 1
fold change (FC) [2]: -10

SMILES: O=C(c1ccccc1)c1ccc2n1CCCC2C(=O)O (stereo unspecified)
fold change (FC) [1]: <1
fold change (FC) [2]: 9

SMILES: CSc1ccc(C(=O)c2ccc3n2CCCC3C(=O)O)cc1 (stereo unspecified)
fold change (FC) [1]: -1
fold change (FC) [2]: 3

SMILES: Cc1ccccc1NC(=O)c1c(NC(=O)CN2CCOCC2)c(C#N)c2n1CCC2
inhibition (INH) [6]: 3.9%

pIC50 [5]: 8.30
pIC50 [3]: 6.15
SMILES: Cc1ccc(-c2c(-c3ccc(S(C)(=O)=O)cc3)cn3c2CCC3)cc1

SMILES: O=C(c1ccc(F)cc1)c1ccc2n1CCC2C(=O)O (stereo unspecified)
fold change (FC) [1]: 61
fold change (FC) [2]: 183

SMILES: Cc1ccccc1NC(=O)c1c(NC(=O)CCl)c(C#N)c2n1CCC2
inhibition (INH) [6]: 20.3%

pIC50 [5]: 5.68
SMILES: CC1(C)Cn2c(CC(=O)O)c(-c3ccc(Cl)cc3)c(-c3ccccc3)c2C1=O

SMILES: CS(=O)(=O)c1ccc(C(=O)c2ccc3n2CCCC3C(=O)O)cc1 (stereo unspecified)
fold change (FC) [1]: 3
fold change (FC) [2]: <1

SMILES: O=C(c1ccc(Cl)cc1)c1ccc2n1CC(C(=O)O)C2 (stereo unspecified)
fold change (FC) [1]: <0.3
fold change (FC) [2]: <10

SMILES: CC(=O)Nc1c(C#N)c2n(c1C(=O)Nc1ccccc1Cl)CCC2
inhibition (INH) [6]: 23.9%

pIC50 [3]: 6.02
SMILES: Cc1c(-c2ccc(Cl)cc2)c(-c2ccccc2)c2n1CC(C)(C)C2=O

pIC50 [5]: 6.00
pIC50 [3]: 5.96
IP [4]: 0%
SMILES: CSc1ccc(-c2cn3c(c2-c2ccccc2)CCC3)cc1

SMILES: CC(=O)Nc1c(C#N)c2n(c1C(=O)Nc1ccccc1C)CCC2
inhibition (INH) [6]: 23.2%

IP [7]: 17%
SMILES: O=C(O)/C=C/c1c(-c2ccccc2)c(-c2ccccc2)c2n1CCC2

IP [7]: 12%
SMILES: O=C(O)/C=C/c1c(-c2ccc([S+]([O-])c3ccccc3)cc2)c(-c2ccccc2)c2n1CCC2 (stereo unspecified)

IP [7]: 28%
SMILES: O=C(O)/C=C/c1c(-c2ccc(Cc3ccccc3)cc2)c(-c2ccccc2)c2n1CCC2

SMILES: N#Cc1c(NC(=O)CCCl)c(C(=O)Nc2ccccc2Cl)n2c1CCC2
inhibition (INH) [6]: 18%

SMILES: Cc1ccc(C(=O)c2ccc3n2CCCC3C(=O)O)cc1 (stereo unspecified)
fold change (FC) [1]: <1
fold change (FC) [2]: <0.5

IP [7]: 18%
SMILES: O=C(O)/C=C/c1c(-c2ccc([S+]([O-])Cc3ccccc3)cc2)c(-c2ccccc2)c2n1CCC2 (stereo unspecified)

IP [7]: 12%
SMILES: O=C(O)/C=C/c1c(-c2ccc(Nc3ccc(Cl)cc3)cc2)c(-c2ccccc2)c2n1CCC2

SMILES: N#Cc1ccc(C(=O)c2ccc3n2CCC3C(=O)O)cc1 (stereo unspecified)
fold change (FC) [1]: <1
fold change (FC) [2]: 6

IP [7]: 40%
SMILES: O=C(O)/C=C/c1c(-c2ccc(Sc3ccccc3)cc2)c(-c2ccccc2)c2n1CCC2

pIC50 [3]: 5.26
SMILES: O=C(O)/C=C/c1c(-c2ccc(SCc3ccccc3)cc2)c(-c2ccccc2)c2n1CCC2

pIC50 [5]: 6.05
pIC50 [3]: 7.52
IP [4]: 0%
SMILES: CSc1ccc(-c2cn3c(c2-c2ccc(C)cc2)CCC3)cc1

SMILES: N#Cc1c(NC(=O)CN2CCOCC2)c(C(=O)Nc2ccccc2Cl)n2c1CCC2
inhibition (INH) [6]: 7.1%

SMILES: N#Cc1c(NC(=O)CCl)c(C(=O)Nc2ccccc2Cl)n2c1CCC2
inhibition (INH) [6]: 22.2%

pIC50 [5]: 5.12
SMILES: COC1c2c(-c3ccccc3)c(-c3ccc(Cl)cc3)c(C)n2CC1(C)C (stereo unspecified)

IP [7]: 0%
SMILES: O=C(O)/C=C/c1c(-c2ccc(S(=O)(=O)Cc3ccccc3)cc2)c(-c2ccccc2)c2n1CCC2

IP [7]: 31%
SMILES: Nc1ccc(-c2c(-c3ccccc3)c3n(c2/C=C/C(=O)O)CCC3)cc1

SMILES: C[S+]([O-])c1ccc(C(=O)c2ccc3n2CCCC3C(=O)O)cc1 (stereo unspecified)
fold change (FC) [1]: <0.2
fold change (FC) [2]: -0.5

IP [7]: 35%
SMILES: O=C(O)/C=C/c1c(-c2ccc(-c3ccccc3)cc2)c(-c2ccccc2)c2n1CCC2

SMILES: O=C(c1ccccc1)c1ccc2n1CCCCC2C(=O)O (stereo unspecified)
fold change (FC) [1]: -0.4
fold change (FC) [2]: -3

IP [7]: 0%
SMILES: O=C(O)/C=C/c1c(-c2ccc(O)cc2)c(-c2ccccc2)c2n1CCC2

SMILES: O=C(c1ccc2n1CCC2C(=O)O)C1CCC1 (stereo unspecified)
fold change (FC) [1]: -1.5
fold change (FC) [2]: 30

SMILES: COc1ccc(C(=O)c2ccc3n2CCC3C(=O)O)cc1 (stereo unspecified) [ANIROLAC]
fold change (FC) [1]: 83
fold change (FC) [2]: 117

SMILES: O=C(c1ccc(F)cc1)c1ccc2n1CCCC2C(=O)O (stereo unspecified)
fold change (FC) [1]: <1
fold change (FC) [2]: <10

IP [7]: 45%
SMILES: O=C(O)/C=C/c1c(-c2ccc(Nc3cccc(C(F)(F)F)c3)cc2)c(-c2ccccc2)c2n1CCC2
